What all share (assay): Antibacterial activity evaluation test, MIC by broth microdilution (CLSI)
Format in all cases: cell-based

Assay [1] deals with AmpC-derepressed Pseudomonas aeruginosa mutant strain (S-3028). The following applies: for MIC: Pseudomonas aeruginosa. How it is done: (§1) The minimum inhibitory concentration (MIC) was measured according to the Clinical and Laboratory Standards Institute (CLSI) standard method by using the following broth microdilution method.
(§2) As bacteria, a Pseudomonas aeruginosa strain ATCC27853, an AmpC-derepressed Pseudomonas aeruginosa mutant strain (S-3028), an IMP-1-containing Pseudomonas aeruginosa strain (S-2838), a VIM-2-containing Pseudomonas aeruginosa strain (S-3779), a GES-19 and GES-20-containing Pseudomonas aeruginosa strain (S-3759), a CTX-M-15-containing Escherichia coli strain (TK-1747), a KPC-2-containing Klebsiella pneumoniae strain (Y-995), an OXA-48-containing Klebsiella pneumoniae strain (Y-1062), and an NDM-1-containing Klebsiella pneumoniae strain (Y-1007) were used. The test bacterial cells that had been cultured overnight on a Mueller Hinton agar medium were scraped off, suspended at a density equivalent to 0.5 McFarland standard, and diluted 10-fold, thereby obtaining an inoculum. A cation-adjusted Mueller Hinton medium containing a test compound was inoculated with 0.005 mL of the inoculum, and the cells were cultured at 35° C. for 16 to 20 hours. The minimum drug concentration at which the growth of bacteria was not visually observed was defined as MIC (μg/mL).
(§3) An antibacterial activity evaluation test was performed in the same manner as in Test Example 1.

Assay [2] has as its system CTX-M-15-containing Escherichia coli strain (TK-1747). The note with it: for MIC: Escherichia coli. Here is the method:
as §1, §2, §3

Assay [3] deals with GES-19 and GES-20-containing Pseudomonas aeruginosa strain (S-3759). The following applies: for MIC: Pseudomonas aeruginosa. How it is done: as §1, §2, §3
The test system of assay [4] is IMP-1-containing Pseudomonas aeruginosa strain (S-2838). The note with it: for MIC: Pseudomonas aeruginosa. Here is the method:
as §1, §2, §3

Assay [5] relates to KPC-2-containing Klebsiella pneumoniae strain (Y-995). The note with it: for MIC: Klebsiella pneumoniae. How it is done:
as §1, §2, §3

In assay [6] the test system is NDM-1-containing Klebsiella pneumoniae strain (Y-1007). The following applies: for MIC: Klebsiella pneumoniae. How it is done: as §1, §2, §3
Assay [7] deals with OXA-48-containing Klebsiella pneumoniae strain (Y-1062). The note with it: for MIC: Klebsiella pneumoniae. Here is the method:
as §1, §2, §3

Assay [8] relates to Pseudomonas aeruginosa strain ATCC27853. The following applies: Pseudomonas aeruginosa, ATCC27853. How it is done:
as §1, §2, §3

Assay [9] relates to VIM-2-containing Pseudomonas aeruginosa strain (S-3779). The note with it: for MIC: Pseudomonas aeruginosa. Here is the method: as §1, §2, §3

This is an account of results in patent publication US20220241249A1, “PHARMACEUTICAL COMPOSITION AND KIT CONTAINING NOVEL PENAM DERIVATIVE OR SALT THEREOF AND ONE OR MORE COMPOUNDS SELECTED FROM beta-LACTAMASE INHIBITORY COMPOUND AND ANTIBACTERIAL COMPOUND OR SALTS THEREOF” (priority 2019, published 2022).

≈ marks a conversion by molar mass, not a printed value.

On to `CC(C)(O/N=C(\C(=O)NC1C(=O)N2C[C@@](C(=O)O)(N3CCN(NC(=O)C(=O)c4cc(O)c(O)cc4F)C3=O)S[C@H]12)c1csc(N)n1)C(=O)O` (stereo partly drawn) [Example 147, (3R,5R,6R)-6-((Z)-2-(2-aminothiazol-4-yl)-2-(((2-carboxypropan-2-yl)oxy)imino)aceta-mido)-3-(3-(2-(2-fluoro-4,5-dihydroxy-phenyl)-2-oxoaceta-mido)-2-oxoimidazol-idin-1-yl)-7-oxo-4-thia-1-azabicyclo[3.2.0]-heptane-3-carboxylic acid], for which the Antibacterial activity (MIC) Pseudomonas aeruginosa S-3028 in [1] (Pseudomonas aeruginosa S-3028) is 0.5 µg/mL. The compound further displayed an Antibacterial activity (MIC) Escherichia coli TK-1747 in assay [2] (Escherichia coli TK-1747) of 1 µg/mL. The same compound registered an Antibacterial activity (MIC) Pseudomonas aeruginosa S-3759 in assay [3] (Pseudomonas aeruginosa S-3759) of 1 µg/mL. In assay [4] (Pseudomonas aeruginosa S-2838), the Antibacterial activity (MIC) Pseudomonas aeruginosa S-2838 was found to be 4 µg/mL. In [5] (Klebsiella pneumoniae Y-995), this compound displayed an Antibacterial activity (MIC) Klebsiella pneumoniae Y-995 of 0.25 µg/mL. For the same compound, the Antibacterial activity (MIC) Klebsiella pneumoniae Y-1007 in assay [6] (Klebsiella pneumoniae Y-1007) was less than 0.06 µg/mL. In addition, the Antibacterial activity (MIC) Klebsiella pneumoniae Y-1062 in [7] (Klebsiella pneumoniae Y-1062) was determined as 4 µg/mL. The Antibacterial activity (MIC) Pseudomonas aeruginosa ATCC 27853 in [8] was determined as 1 µg/mL. In assay [9] (Pseudomonas aeruginosa S-3779), this compound came in with an Antibacterial activity (MIC) Pseudomonas aeruginosa S-3779 of 1 µg/mL.
With `CC(C)(O/N=C(\C(=O)N[C@@H]1C(=O)N2C[C@@](C(=O)O)(n3ncn(NC(=O)C(=O)c4ccc(O)c(O)c4Cl)c3=O)S[C@H]12)c1csc(N)n1)C(=O)O` [Example 26, (3R,5R,6R)-6-((Z)-2-(2-aminothiazol-4-yl)-2-(((2-carboxypropan-2-yl)oxy)imino)acetamido)-3-(4-(2-(2-chloro-3,4-dihydroxyphenyl)-2-oxoacetamido)-5-oxo-4,5-dihydro-1H-1,2,4-triazol-1-yl)-7-oxo-4-thia-1-azabicyclo[3.2.0]heptane-3-carboxylic acid], the MIC in [1] was 0.12 µg/mL (≈ 0.162 µM); in assay [2], 0.12 µg/mL (≈ 0.162 µM); in assay [3], 0.25 µg/mL (≈ 0.338 µM); in assay [4], 0.25 µg/mL (≈ 0.338 µM); in assay [5], 0.12 µg/mL (≈ 0.162 µM); in assay [6], less than 0.06 µg/mL. Also, the MIC in assay [7] was 0.5 µg/mL (≈ 0.676 µM); in assay [8], 1 µg/mL (≈ 1.35 µM); in [9] it was 0.25 µg/mL (≈ 0.338 µM).
Turning to `CC(C)(O/N=C(\C(=O)N[C@@H]1C(=O)N2C[C@@](C(=O)O)(n3nnc(CNC(=O)c4ccc(O)c(O)c4Cl)n3)S[C@H]12)c1csc(N)n1)C(=O)O` [Example 141, (3R,5R,6R)-6-((Z)-2-(2-aminothiazol-4-yl)-2-(((2-carboxypropan-2-yl)oxy)imino)acetamido)-3-(5-((2-chloro-3,4-dihydroxybenzamido)methyl)-2H-tetrazol-2-yl)-7-oxo-4-thia-1-azabicyclo[3.2.0]heptane-3-carboxylic acid], the minimum inhibitory concentration (MIC) is 0.5 µg/mL (≈ 0.703 µM) in assay [1]; 0.5 µg/mL (≈ 0.703 µM) in assay [2]; 4 µg/mL (≈ 5.63 µM) in [3]; 0.25 µg/mL (≈ 0.352 µM) in assay [4]; greater than 32 µg/mL in [5]; 0.25 µg/mL (≈ 0.352 µM) in assay [6]. The MIC in [7], in assay [8] and in [9] was 1 µg/mL (≈ 1.41 µM) throughout.
As to `CC[C@H](O/N=C(\C(=O)N[C@@H]1C(=O)N2C[C@@](C(=O)O)(N3CCN(NC(=O)C(=O)c4ccc(O)c(O)c4Cl)C3=O)S[C@H]12)c1csc(N)n1)C(=O)O` [Example 105, (3R,5R,6R)-6-((Z)-2-(2-aminothiazol-4-yl)-2-(((S)-1-carboxypropoxy)imino)acetamido)-3-(3-(2-(2-chloro-3,4-dihydroxyphenyl)-2-oxoacetamido)-2-oxoimidazolidin-1-yl)-7-oxo-4-thia-1-azabicyclo[3.2.0]heptane-3-carboxylic acid], the MIC in [1] is less than 0.06 µg/mL; in assay [2] it was 0.5 µg/mL (≈ 0.675 µM); in assay [3] it was 0.5 µg/mL (≈ 0.675 µM); in assay [4], 0.25 µg/mL (≈ 0.337 µM); in assay [5], 0.12 µg/mL (≈ 0.162 µM); in assay [6], less than 0.06 µg/mL. The MIC in [7] was found to be 0.5 µg/mL (≈ 0.675 µM); in assay [8] it was 0.25 µg/mL (≈ 0.337 µM); in assay [9] it was 0.25 µg/mL (≈ 0.337 µM).
